Consider 9 compounds from patent US10336762B2 (priority 2017, dated 2019).

The structures appear in SMILES notation. Read-outs that look alike come from different tables or passages of the source.

One experiment deals with TNFα. As to the kind of experiment: cells. It counts as cell-based, human. The note with it: LPS-stimulated human monocytes, TNFα by TR-FRET, read-out: EC50 TNF. (In general: Time-resolved FRET reads energy transfer from a long-lived donor to a nearby acceptor.)
The target in another experiment is IRAK4 enzyme (Homo sapiens (Human), UniProt Q9NWZ3). As to the kind of experiment: biochemical. It counts as biochemical. Conditions: IRAK4 enzyme, TR-FRET, 500 μM ATP.
IRAK4 enzyme, sequence (Q9NWZ3 whole entry): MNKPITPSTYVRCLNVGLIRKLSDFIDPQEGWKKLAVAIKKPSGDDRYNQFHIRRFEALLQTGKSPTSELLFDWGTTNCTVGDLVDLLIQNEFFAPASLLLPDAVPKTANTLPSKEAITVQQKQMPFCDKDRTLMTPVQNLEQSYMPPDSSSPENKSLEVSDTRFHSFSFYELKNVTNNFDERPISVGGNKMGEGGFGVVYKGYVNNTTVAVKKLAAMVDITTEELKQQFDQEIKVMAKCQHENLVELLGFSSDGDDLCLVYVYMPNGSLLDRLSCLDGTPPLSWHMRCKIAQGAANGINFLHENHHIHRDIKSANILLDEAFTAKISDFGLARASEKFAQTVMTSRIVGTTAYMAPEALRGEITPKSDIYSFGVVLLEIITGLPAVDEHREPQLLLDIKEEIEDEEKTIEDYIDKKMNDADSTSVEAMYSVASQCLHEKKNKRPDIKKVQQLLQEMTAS

Consider `COC(=O)N1CCC2(CC(Nc3cc(-c4ccc5cc(C#N)cnn45)ncc3C(=O)NC[C@@H](F)C(C)(C)O)C2)C1` (stereo partly drawn) [Example 903, (R)-methyl 2-((2-(3-cyano-pyrrolo[1,2-b]pyridazin-7-yl)-5-((2-fluoro-3-hydroxy-3-methylbutyl)carbamoyl)pyridin-4-yl)amino)-6-azaspiro[3.4]octane-6-carboxylate], for which the EC50 (usually the concentration that produces a half-maximal response) in the experiment with TNFα (Homo sapiens, Monocyte) was 79 nM. Moreover, at IRAK4 enzyme, the IC50 (commonly the midpoint of a concentration-inhibition curve) stood at 1 nM.
Take `CC(C)(O)[C@H](F)CNC(=O)c1cnc(-c2ccc3cc(C#N)cnn23)cc1NC1CC2(CCN(CC(F)(F)F)C2)C1` (stereo partly drawn) [Example 904, (R)-6-(3-cyanopyrrolo[1,2-b]pyridazin-7-yl)-N-(2-fluoro-3-hydroxy-3-methylbutyl)-4-((6-(2,2,2-trifluoroethyl)-6-aza-spiro[3.4]octan-2-yl)amino)nicotinamide]: the EC50 in the experiment with TNFα (Homo sapiens, Monocyte) came out at 117 nM. For the same compound, half-maximal inhibition against IRAK4 enzyme (IC50) was put at 1 nM.
With `CC(C)(O)[C@H](F)CNC(=O)c1cnc(-c2ccc3cc(C#N)cnn23)cc1NCC1CNC1` [Example 905, (R)-4-((azetidin-3-yl-methyl)amino)-6-(3-cyanopyrrolo[1,2-b]pyridazin-7-yl)-N-(2-fluoro-3-hydroxy-3-methylbutyl)nicotinamide], the EC50 in the experiment with TNFα (Homo sapiens, Monocyte) is greater than 10000 nM. The compound further had an IC50 against IRAK4 enzyme of 15 nM.
Regarding `COC(=O)N1CC(CNc2cc(-c3ccc4cc(C#N)cnn34)ncc2C(=O)NC[C@@H](F)C(C)(C)O)C1` [Example 906, (R)-methyl 3-(((2-(3-cyanopyrrolo[1,2-b]pyridazin-7-yl)-5-((2-fluoro-3-hydroxy-3-methylbutyl)carbamoyl)pyridin-4-yl)amino)methyl) azetidine-1-carboxylate], the EC50 in the experiment with TNFα (Homo sapiens, Monocyte) is 186 nM. Moreover, inhibition on IRAK4 enzyme was half-maximal at 10 nM (IC50).
The matching figures for `CC(C)(O)[C@H](F)CNC(=O)c1cnc(-c2ccc3cc(C#N)cnn23)cc1NCC1CN(CC(F)(F)F)C1` [Example 907, (R)-6-(3-cyanopyrrolo[1,2-b]pyridazin-7-yl)-N-(2-fluoro-3-hydroxy-3-methylbutyl)-4-(((1-(2,2,2-trifluoroethyl)azetidin-3-yl)methyl)amino) nicotinamide]: 91 nM and 10 nM.
As for `CC(C)(O)[C@H](F)CNC(=O)c1cnc(-c2ccc3cc(C#N)cnn23)cc1NC1CC2(CCN2)C1` (stereo partly drawn) [Example 908, 4-(((4S,6r)-1-azaspiro[3.3]heptan-6-yl)amino)-6-(3-cyanopyrrolo[1,2-b]pyridazin-7-yl)-N-((R)-2-fluoro-3-hydroxy-3-methylbutyl)nicotinamide], the EC50 with TNFα (Homo sapiens, Monocyte) stood at 611 nM. The compound also showed an IC50 against IRAK4 enzyme of 6 nM.
In the case of `COC(=O)N1CCC12CC(Nc1cc(-c3ccc4cc(C#N)cnn34)ncc1C(=O)NC[C@@H](F)C(C)(C)O)C2` (stereo partly drawn) [Example 909, (4S,6r)-methyl 6-((2-(3-cyanopyrrolo[1,2-b]pyridazin-7-yl)-5-(((R)-2-fluoro-3-hydroxy-3-methylbutyl)carbamoyl)pyridin-4-yl)amino)-1-azaspiro[3.3]heptane-1-carboxylate], the EC50 in the experiment on TNFα was 372 nM. On IRAK4 enzyme, this compound came in with an IC50 of 15 nM.
Turning to `CC(C)(O)[C@H](F)CNC(=O)c1cnc(-c2ccc3cc(C#N)cnn23)cc1NC1CC2(CCN2CC(F)(F)F)C1` (stereo partly drawn) [Example 910, 6-(3-cyanopyrrolo[1,2-b]pyridazin-7-yl)-N-((R)-2-fluoro-3-hydroxy-3-methylbutyl)-4-(((4S,6r)-1-(2,2,2-trifluoroethyl)-1-azaspiro[3.3]heptan-6-yl)amino)nicotinamide], the EC50 in the experiment on TNFα amounted to 1210 nM. The same compound came in with an IC50 against IRAK4 enzyme of 10 nM.
The matching figures for `CC(C)(O)[C@H](F)CNC(=O)c1cnc(-c2ccc3cc(C#N)cnn23)cc1NC1CC2(CCN2)C1` (stereo partly drawn) [Example 911, 4-(((4R,6s)-1-azaspiro[3.3]heptan-6-yl)amino)-6-(3-cyanopyrrolo[1,2-b]pyridazin-7-yl)-N-((R)-2-fluoro-3-hydroxy-3-methylbutyl) nicotinamide]: 318 nM and 7 nM.
